For this data set, the system named is HeLa cells. As to the kind of experiment: Cell cycle assay in HeLa cells. The class given is cell-based, human. The settings on record: HeLa cells.
The mark [1] stands for this setting: 150 nM oligomeric compound, 24 hours, relative to untreated control (UTC = 100).
The mark [2] stands for this setting: 150 nM oligomeric compound, 48 hours after treatment, relative to untreated control (UTC=100).
Where [3] appears, read: 25 nM, 48 hours, percentage of cells in phase, average of replicates.
The mark [4] stands for this setting: 50 nM, 48 hours, percentage of cells in phase, average of replicates.
Where [5] appears, read: 100 nM, 48 hours, percentage of cells in phase, average of replicates.
[6] abbreviates: 150 nM, 48 hours, relative to untreated control.
Where [7] appears, read: 150 nM, 48 hours, percentage of cells in phase, average of replicates.

“And” between values parts separate entries of the source, which are not always exact repeats. Identical values can stand only once. In the oligonucleotide strings, read from the 5' end, every base follows the letter of its sugar. An asterisk marks phosphorothioate; unmarked linkages are phosphodiester. Other units and linkages are bracketed, terminal groups are in braces. A string of capitals states the bases alone. e = 2'-O-(2-methoxyethyl) (MOE); [5mC] = 5-methylcytosine; d = 2'-deoxy (DNA)

On to “327946 (antisense eA*eG*eG*e[5mC]*eG*eA*eA*eG*eG*eA*eT*eG*eA*e[5mC]*eA*eA*eA*eG*eG*eG*eA*eA) [compound 327946]”, for which, under setting [1], the “% cells aneuploid” value stood at 43%, the “% cells in cell cycle phase G1” value came to 90%, the “% cells in cell cycle phase G2/M” value stood at 156% and the “% cells in cell cycle phase S” value turned out to be 84%. The “% cells in cell cycle phase subG1” value under setting [1] worked out at 225%. For the same substance, under setting [2], the “% cells in cell cycle phase: G1” value is 72%, the “% cells in cell cycle phase: G2/M” value was found to be 129%, the “% cells in cell cycle phase: S” value is given as 150% and the “% cells in cell cycle phase: aneuploid” value is on record as 76%. Also, the “% cells in cell cycle phase: subG1” value under setting [2] is 431%.
Turning to “327944 (antisense eA*eA*eA*eG*eT*eG*eT*e[5mC]*eA*eG*eA*eT*eA*e[5mC]*eG*eG*eT*eG*eT*eG*eG) [compound 327944]”, under setting [1], the “% cells aneuploid” value stood at 50%, the “% cells in cell cycle phase G1” value was determined as 85%, the “% cells in cell cycle phase G2/M” value was 111% and the “% cells in cell cycle phase S” value is on record as 110%. In addition, the “% cells in cell cycle phase subG1” value under setting [1] came out at 165%. Moreover, under setting [2], the “% cells in cell cycle phase: G1” value came to 75%, the “% cells in cell cycle phase: G2/M” value was found to be 144%, the “% cells in cell cycle phase: S” value is listed as 129% and the “% cells in cell cycle phase: aneuploid” value was 78%. Moreover, the “% cells in cell cycle phase: subG1” value under setting [2] was 490%.
“327949 (antisense e[5mC]*eA*e[5mC]*eA*eA*eA*eT*eT*e[5mC]*eG*eG*eA*eT*e[5mC]*eT*eA*e[5mC]*eA*eG*eG*eG*eT*eA) [compound 327949]”: under setting [1], the “% cells aneuploid” value is given as 68%, the “% cells in cell cycle phase G1” value was 82%, the “% cells in cell cycle phase G2/M” value was 172% and the “% cells in cell cycle phase S” value came out at 84%. In addition, the “% cells in cell cycle phase subG1” value under setting [1] was 194%. Under setting [2], the “% cells in cell cycle phase: G1” value turned out to be 66%, the “% cells in cell cycle phase: G2/M” value amounted to 138%, the “% cells in cell cycle phase: S” value is 157% and the “% cells in cell cycle phase: aneuploid” value came to 71%. Further, the “% cells in cell cycle phase: subG1” value under setting [2] was 773%.
In the case of “327957 (antisense e[5mC]*eA*e[5mC]*eA*eA*eG*eT*eT*e[5mC]*eG*eG*eA*eT*e[5mC]*eT*eA*e[5mC]*eG*eG*eG*eT*eT) [compound 327957]”, under setting [1], the “% cells aneuploid” value came out at 66%, the “% cells in cell cycle phase G1” value worked out at 91%, the “% cells in cell cycle phase G2/M” value is 145% and the “% cells in cell cycle phase S” value came to 88%. In addition, the “% cells in cell cycle phase subG1” value under setting [1] is listed as 197%. Under setting [2], the “% cells in cell cycle phase: G1” value was 65%, the “% cells in cell cycle phase: G2/M” value came out at 127%, the “% cells in cell cycle phase: S” value came to 169% and the “% cells in cell cycle phase: aneuploid” value came out at 85%. In addition, the “% cells in cell cycle phase: subG1” value under setting [2] turned out to be 864%.
Turning to “328403 (antisense eA*eG*eG*e[5mC]*e[5mC]*dT*dA*dT*dT*d[5mC]*d[5mC]*dT*dG*dT*dA*eG*e[5mC]*eA*eA*eA) [compound 328403]”, the “% cells in cell cycle phase: G2/M” value (25 nM, 48 hours) is reported as 18%. In addition, under setting [3], the “% cells in cell cycle phase: G1” value was 58%, the “% cells in cell cycle phase: S” value turned out to be 24%, the “% cells in cell cycle phase: aneuploid” value was found to be 13% and the “% cells in cell cycle phase: subG1” value turned out to be 1.5%. The “% cells in cell cycle phase: G2/M” value (50 nM, 48 hours) is listed as 20%. Also, under setting [4], the “% cells in cell cycle phase: G1” value amounted to 53%, the “% cells in cell cycle phase: S” value was 27%, the “% cells in cell cycle phase: aneuploid” value came to 14% and the “% cells in cell cycle phase: subG1” value is on record as 1.1%. In addition, the “% cells in cell cycle phase: G2/M” value (100 nM, 48 hours) is reported as 23%. In addition, under setting [5], the “% cells in cell cycle phase: G1” value is 48%, the “% cells in cell cycle phase: S” value is 29%, the “% cells in cell cycle phase: aneuploid” value came out at 11% and the “% cells in cell cycle phase: subG1” value was determined as 3.5%. Further, under setting [1], the “% cells aneuploid” value is 53% and 82%; the “% cells in cell cycle phase G1” value was 70% and 86%; the “% cells in cell cycle phase G2/M” value is 197% and 179%; the “% cells in cell cycle phase S” value was 85% and 75%. Further, under setting [1], the “% cells in cell cycle phase subG1” value was 284% and 189%. Moreover, under setting [2], the “% cells in cell cycle phase: G1” value is 61% and 82%; the “% cells in cell cycle phase: G2/M” value is 131% and 106%; the “% cells in cell cycle phase: S” value was 177% and 148%; the “% cells in cell cycle phase: aneuploid” value was 85% and 80%. For the same substance, the “% cells in cell cycle phase: G2/M” value (150 nM, 48 hours) was 24%. Further, under setting [6], the “% cells in cell cycle phase G1” value was 125%, the “% cells in cell cycle phase G2/M” value stood at 80%, the “% cells in cell cycle phase S” value is listed as 89% and the “% cells in cell cycle phase aneuploid” value is on record as 175%. Besides, the “% cells in cell cycle phase subG1” value under setting [6] is 89%. Also, under setting [7], the “% cells in cell cycle phase: G1” value came out at 37%, the “% cells in cell cycle phase: S” value came out at 40%, the “% cells in cell cycle phase: aneuploid” value is on record as 13% and the “% cells in cell cycle phase: subG1” value stood at 8.2%.
